US9113629B2, “4-amino-6-(4-substituted-phenyl)-picolinates and 6-amino-2-(4-substituted-phenyl)-pyrimidine-4-carboxylates and their use as herbicides” (DOW AGROSCIENCES LLC, priority 2013, dated 2015)
Where two headings read alike, the source gives them in different places.

What was measured:
[1] = tested on: Key Broadleaf Weed and Crop Species; experiment: Post-emergent Test II herbicidal activity (Table 5); type: in vivo; conditions: post-emergence, 336 h, post-emergent, 14 days after application; for pest or weed control at 70 g/ha: 70 g ai/ha; for pest or weed control at 140 g/ha: 140 g ai/ha
Method in brief: (§1)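 Visual injury ratings (0 = no injury, 100 = complete kill) were taken 14 d after treatment, relative to untreated plants. Seedlings at the first–second true leaf stage received overhead spray at 187 L/ha; the highest rate was serially diluted to ½×, ¼×, ⅛× and 1/16×.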

[2] = tested on: Key Grass and Sedge Weeds as well as Grass Crops; experiment: Post-emergent Test II herbicidal activity (Table 6); type: in vivo; conditions: post-emergence, 336 h; for pest or weed control at 70 g/ha: application rate 70 g ai/ha; for pest or weed control at 140 g/ha: application rate 140 g ai/ha
Method in brief: as §1

[3] = ABUTH: velvetleaf (Abutilon theophrasti), read-out: Visual Growth Reduction (%) 14 Days After Application ABUTH
[4] = AMARE: redroot pigweed (Amaranthus retroflexus), read-out: Visual Growth Reduction (%) 14 Days After Application AMARE
[5] = BRSNN: oilseed-rape, canola (Brassica napus), read-out: Visual Growth Reduction (%) 14 Days After Application BRSNN
[6] = CHEAL: lambsquarters (Chenopodium album), read-out: Visual Growth Reduction (%) 14 Days After Application CHEAL
[7] = EPHHL: wild poinsettia (Euphorbia heterophylla), read-out: Visual Growth Reduction (%) 14 Days After Application EPHHL
[8] = HELAN: sunflower (Helianthus annuus), read-out: Visual Growth Reduction (%) 14 Days After Application HELAN
[9] = VIOTR: wild pansy (Viola tricolor), read-out: Visual Growth Reduction (%) 14 Days After Application VIOTR
[10] = CYPES: yellow nutsedge (Cyperus esculentus), read-out: Visual Growth Reduction (%) 14 Days After Application, CYPES
[11] = DIGSA: crabgrass (Digitaria sanguinalis), read-out: Visual Growth Reduction (%) 14 Days After Application, DIGSA
[12] = ECHCG: barnyardgrass (Echinochloa crus-galli), read-out: Visual Growth Reduction (%) 14 Days After Application, ECHCG
[13] = ORYSA: rice (Oryza sativa), read-out: Visual Growth Reduction (%) 14 Days After Application, ORYSA
[14] = SETFA: giant foxtail (Setaria faberi), read-out: Visual Growth Reduction (%) 14 Days After Application, SETFA
[15] = SORVU: grain sorghum (Sorghum vulgare), read-out: Visual Growth Reduction (%) 14 Days After Application, SORVU
[16] = TRZSS (wheat, Triticum aestivum), read-out: Visual Growth Reduction (%) 14 Days After Application, TRZSS
[17] = ZEAMX: maize, corn (Zea mays), read-out: Visual Growth Reduction (%) 14 Days After Application, ZEAMX

C=Cc1c(N)nc(-c2ccc(I)cc2)nc1C(=O)O [Compound 123, 6-Amino-2-(4-iodophenyl)-5-vinylpyrimidine-4-carboxylic acid]
60 to 74%: pest or weed control at 140 g/ha [1, 5] | pest or weed control at 140 g/ha [2, 17]
187 to 190 °C: melting point
45 to 59%: pest or weed control at 140 g/ha [1, 9] | pest or weed control at 140 g/ha [2, 10] | pest or weed control at 70 g/ha [2, 17]
95 to 100%: pest or weed control at 70 g/ha [1, 4] | pest or weed control at 140 g/ha [1, 4] | pest or weed control at 70 g/ha [1, 7] | pest or weed control at 140 g/ha [1, 7]
85 to 94%: pest or weed control at 140 g/ha [2, 12]
0 to 29%: pest or weed control at 70 g/ha [1, 3] | pest or weed control at 140 g/ha [1, 3] | pest or weed control at 70 g/ha [1, 5] | pest or weed control at 70 g/ha [1, 6] | pest or weed control at 140 g/ha [1, 6] | pest or weed control at 70 g/ha [1, 9] | pest or weed control at 70 g/ha [2, 10] | pest or weed control at 70 g/ha [2, 11] | pest or weed control at 140 g/ha [2, 11] | pest or weed control at 70 g/ha [2, 13] | pest or weed control at 140 g/ha [2, 13] | pest or weed control at 70 g/ha [2, 14] | pest or weed control at 140 g/ha [2, 14] | pest or weed control at 70 g/ha [2, 16] | pest or weed control at 140 g/ha [2, 16]
75 to 84%: pest or weed control at 70 g/ha [1, 8] | pest or weed control at 140 g/ha [1, 8] | pest or weed control at 70 g/ha [2, 12]
30 to 44%: pest or weed control at 70 g/ha [2, 15] | pest or weed control at 140 g/ha [2, 15]
